Data taken from patent publication US20240067654A1 (Kinoxis Therapeutics Pyt Ltd, priority 2020, published 2024).

Tests used:
OTR [1] = target: T1, OTR (Homo sapiens, UniProt P30559); experiment: Tritiated OT (3H-OT) displacement; format: binding; design: expressed in transfected cells; host or cells: HEK cells, Flp-In TREX system (Invitrogen); settings: Kd concentration of 3H-OT; compound at a concentration up to 10 μM
T1 sequence (P30559 1-389): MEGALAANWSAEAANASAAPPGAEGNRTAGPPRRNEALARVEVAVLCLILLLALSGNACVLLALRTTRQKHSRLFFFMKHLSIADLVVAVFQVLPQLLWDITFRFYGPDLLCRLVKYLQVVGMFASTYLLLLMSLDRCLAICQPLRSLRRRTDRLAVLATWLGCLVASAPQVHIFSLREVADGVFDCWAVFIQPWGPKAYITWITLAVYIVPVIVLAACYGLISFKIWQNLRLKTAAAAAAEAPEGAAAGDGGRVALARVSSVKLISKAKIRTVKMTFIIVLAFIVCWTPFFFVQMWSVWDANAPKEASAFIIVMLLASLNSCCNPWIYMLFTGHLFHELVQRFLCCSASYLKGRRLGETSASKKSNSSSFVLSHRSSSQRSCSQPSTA

OTR [2] = target: T1, OTR; experiment: Modulation of oxytocin-evoked intracellular IP1 and Ca2+ increase: OT dose-response in presence and absence of 10 μM compound; settings: for change in OT potency seen in OT dose-response curves (figure legend): 10 μM of compound; for Relative Potency: OT potency with 10 μM compound relative to OT only
Protocol: These assays were performed using commercial kits (IP1 HTRF from Cisbio and Fluo-4AM from Invitrogen), according to the manufacturer's protocol.

OTR [3] = target: T1, OTR; experiment: Calcium (Ca2+) influx induced by OT in the presence of various concentrations of compound 3 (HEK assay); format: cell-based; design: expressed in transfected cells; host or cells: HEK cells, Flp-In TREX system (Invitrogen)
rat V1aR = rat V1aR (Rattus norvegicus, UniProt P30560); settings: cited from earlier work
human V1aR = human V1aR (Homo sapiens, UniProt P37288); settings: cited from earlier work
[4] = rat, in vivo; cited from earlier work
[5] = in vivo; cited from earlier work

Sequence of human V1aR (P37288 whole entry): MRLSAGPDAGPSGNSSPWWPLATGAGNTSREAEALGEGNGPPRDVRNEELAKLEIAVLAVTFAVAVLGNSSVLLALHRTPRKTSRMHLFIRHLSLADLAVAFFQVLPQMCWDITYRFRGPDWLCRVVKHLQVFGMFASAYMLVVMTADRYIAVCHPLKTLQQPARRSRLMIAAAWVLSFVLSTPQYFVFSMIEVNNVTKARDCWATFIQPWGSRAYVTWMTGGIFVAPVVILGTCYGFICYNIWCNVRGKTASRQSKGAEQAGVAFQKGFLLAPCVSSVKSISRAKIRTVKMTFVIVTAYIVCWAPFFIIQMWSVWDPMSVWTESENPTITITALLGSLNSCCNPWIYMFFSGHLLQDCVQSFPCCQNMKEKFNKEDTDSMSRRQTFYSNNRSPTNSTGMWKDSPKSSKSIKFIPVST
Sequence of rat V1aR (P30560 whole entry): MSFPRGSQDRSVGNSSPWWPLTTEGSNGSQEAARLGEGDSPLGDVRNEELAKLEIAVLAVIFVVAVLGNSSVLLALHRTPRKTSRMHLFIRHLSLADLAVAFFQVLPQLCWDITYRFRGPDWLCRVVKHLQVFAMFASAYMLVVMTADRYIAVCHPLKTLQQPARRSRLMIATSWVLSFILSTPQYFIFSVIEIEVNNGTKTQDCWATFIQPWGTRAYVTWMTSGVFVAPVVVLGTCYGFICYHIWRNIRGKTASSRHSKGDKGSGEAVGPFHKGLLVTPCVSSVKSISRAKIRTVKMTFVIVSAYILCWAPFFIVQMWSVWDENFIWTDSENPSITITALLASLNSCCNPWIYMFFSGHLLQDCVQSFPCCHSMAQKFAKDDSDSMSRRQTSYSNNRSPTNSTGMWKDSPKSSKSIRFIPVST

## Cn1ncc2c1c1ccccc1n2C(=O)c1cccc(F)c1 [Compound 2]
other
  melting point: 91.1 to 92.8 °C
OTR [1]
  displacement of the binding of 3H-OT: None of compounds 1, 2 or 3 displaced ^3H-OT
OTR [2]
  change in OT potency seen in OT dose-response curves (figure legend): improvement in OT potency
OTR [2]; Table 2 group
  Relative Potency: 8.4

## Cn1ncc2c1c1ccccc1n2C(=O)c1ccc(Cl)cc1 [Compound 5]
other
  melting point: 145 to 147 °C
OTR [2]
  change in OT potency seen in OT dose-response curves (figure legend): improvement in OT potency
OTR [2]; Table 3 group
  Relative Potency: 3.1

## Cn1ncc2c1c1ccccc1n2C(=O)C1CCCCCC1 [Compound 13]
OTR [2]
  change in OT potency seen in OT dose-response curves (figure legend): improvement in OT potency
OTR [2]; Table 4 group
  Relative Potency: 2.5

## Cn1ncc2c1c1ccccc1n2C(=O)c1ccc(Cl)c(Cl)c1 [Compound 6]
other
  melting point: 142 to 143 °C
OTR [2]
  change in OT potency seen in OT dose-response curves (figure legend): improvement in OT potency
OTR [2]; Table 3 group
  Relative Potency: 2.9

## Cn1ccc2c1c1ccccc1n2C(=O)C1CCCCC1 [Compound 35]
OTR [2]
  change in OT potency seen in OT dose-response curves (figure legend): improvement in OT potency
OTR [2]; Table 9 group
  Relative Potency: 3.7

## Cn1ncc2c1c1ccccc1n2C(=O)C1CCOCC1 [Compound 16]
OTR [2]
  change in OT potency seen in OT dose-response curves (figure legend): improvement in OT potency
OTR [2]; Table 7 group
  Relative Potency: 2.6

## Cn1ncc2c3ccccc3n(C(=O)c3ccccc3)c21 [Compound 31]
OTR [2]; Table 5 group
  Relative Potency: 5.0

## Cn1ncc2c3ccccc3n(C(=O)C3CCCCC3)c21 [Compound 33]
OTR [2]; Table 5 group
  Relative Potency: 3.7

## Cn1ncc2c1c1ccccc1n2C(=O)c1ccccc1 [Compound 1]
other
  melting point: 152.6 to 153.2 °C
OTR [1]
  displacement of the binding of 3H-OT: None of compounds 1, 2 or 3 displaced ^3H-OT
OTR [2]
  change in OT potency seen in OT dose-response curves (figure legend): improvement in OT potency
OTR [2]; Table 2 group
  Relative Potency: 10.4

## Cn1ncc2c1c1ccccc1n2C(=O)C1CCCC1 [Compound 12]
OTR [2]
  change in OT potency seen in OT dose-response curves (figure legend): improvement in OT potency
OTR [2]; Table 4 group
  Relative Potency: 2.3

## Cc1ccc(C(=O)n2c3ccccc3c3c2cnn3C)cc1 [Compound 4]
other
  melting point: 167 to 169 °C
OTR [2]
  change in OT potency seen in OT dose-response curves (figure legend): improvement in OT potency
OTR [2]; Table 3 group
  Relative Potency: 2.9

## Cn1ncc2c1c1ccccc1n2C(=O)C1CCCCC1 [Compound 3]
other
  melting point: 140.3 to 141.2 °C
OTR [3]; OT + 0.01 μM compound 3, relative to 0 μM
  Relative Potency: 0.64
OTR [3]; OT + 0.03 μM compound 3, relative to 0 μM
  Relative Potency: 0.47
OTR [3]; OT + 0.3 μM compound 3, relative to 0 μM
  Relative Potency: 2.83
OTR [3]; OT + 1 μM compound 3, relative to 0 μM
  Relative Potency: 3.90
OTR [3]; OT + 10 μM compound 3, relative to 0 μM
  Relative Potency: 19.0
OTR [1]
  displacement of the binding of 3H-OT: None of compounds 1, 2 or 3 displaced ^3H-OT
OTR [2]
  change in OT potency seen in OT dose-response curves (figure legend): improvement in OT potency
OTR [2]; Table 2 group
  Relative Potency: 5.5

## Cn1ncc2c1c1ccccc1n2C(=O)N1CCCCC1 [Compound 42]
OTR [2]
  change in OT potency seen in OT dose-response curves (figure legend): improvement in OT potency
OTR [2]; Table 6 group
  Relative Potency: 2.3

## Cn1ncc2c1c1ccccc1n2S(=O)(=O)C1CCCCC1 [Compound 43]
OTR [2]
  change in OT potency seen in OT dose-response curves (figure legend): improvement in OT potency
OTR [2]; Table 6 group
  Relative Potency: 2.6

## CCCCC(=O)n1c2ccccc2c2c1cnn2C [Compound 14]
OTR [2]
  change in OT potency seen in OT dose-response curves (figure legend): improvement in OT potency
OTR [2]; Table 7 group
  Relative Potency: 2.6

## Cn1ncc2c1c1ccccc1n2C(=O)c1cccc2ncccc12 [Compound 29]
OTR [2]
  change in OT potency seen in OT dose-response curves (figure legend): improvement in OT potency
OTR [2]; Table 8 group, n = 2
  Relative Potency: 2.8

## CC[C@H](C)[C@@H]1NC(=O)[C@H](Cc2ccc(O)cc2)NC(=O)[C@@H](N)CSSC[C@@H](C(=O)N2CCC[C@H]2C(=O)N[C@@H](CC(C)C)C(=O)NCC(N)=O)NC(=O)[C@H](CC(N)=O)NC(=O)[C@H](CCC(N)=O)NC1=O [OT, Oxytocin]
Rat V1aR
  affinity of OT at V1aR: 78 nM
Human V1aR
  affinity of OT at V1aR: 120 nM
[4]
  half-life in blood: 3 to 8 min
[5]
  fraction of intranasal OT that enters the brain: 0.002-0.005%

## COc1ccc(C(=O)n2c3ccccc3c3c2cnn3C)cc1 [Compound 7]
other
  melting point: 136 to 138 °C
OTR [2]
  change in OT potency seen in OT dose-response curves (figure legend): improvement in OT potency
OTR [2]; Table 7 group
  Relative Potency: 2.1

## Cn1ncc2c1c1ccccc1n2C(=O)c1ccc(F)cc1 [Compound 10]
OTR [2]
  change in OT potency seen in OT dose-response curves (figure legend): improvement in OT potency
OTR [2]; Table 7 group
  Relative Potency: 2.5

## Cn1ncc2c1c1ccccc1n2C(=O)C12CC3CC(CC(C3)C1)C2 [Compound 23]
OTR [2]
  change in OT potency seen in OT dose-response curves (figure legend): improvement in OT potency
OTR [2]; Table 4 group
  Relative Potency: 3.4

## Cn1ncc2c3ccccc3n(C(=O)c3cccc(F)c3)c21 [Compound 32]
OTR [2]; Table 5 group
  Relative Potency: 3.4
